The conditions of data set [1]: inhaled ozone; cited from earlier work.
The subject of another data set is VX2 auricular carcinoma. Briefly: Therapy of auricular VX2 carcinoma in rabbits by intraperitoneal gas insufflation (survival, tumor clearance, lung metastases). The format is in vivo, New Zealand White (NZW) rabbit. The following applies: n=14 (O3/O2), n=13 (O2).
Data set [2] is described as follows: Hematological and clinical chemistry blood parameters. Format: in vivo, New Zealand White (NZW) rabbit. As for the experimental part:
Arterial blood samples from the central auricular artery of the left tumor free ear were taken on day 14 post inoculation (directly before the first gas insufflation/sham treatment) and on day 19 post inoculation (24 h after the last gas insufflation/sham treatment). Additional blood samples were taken on day 90 from the O3/O2-rem animals (FIG. 1a). For hematological investigations we used an autoanalyzer (Vet abc™ Animal Blood Counter, ABX Diagnostics, Goettingen, Germany), that has been carefully adjusted and validated for the analysis of rabbit blood. For differential blood counts the RBC count was determined together with the hematocrit (HCT) and hemoglobin (HGB). […] Data were expressed as mean values±SEM. For clinical chemistry investigations creatinine, GOT, and GPT values were measured with the Reflovet® Plus system (Roche Diagnostics GmbH, Mannheim, Germany) to monitor for kidney and liver functions.
For comparison of survival rates of the three experimental groups the logrank test was performed considering p values<0.05 as significant. The survival probability of rabbits calculated from the time of tumor cell inoculation until day 90 was depicted according to the Kaplan-Meier method. […] Statistical differences in mean body weight between the experimental groups were evaluated at daily intervals with the unpaired Student's t test with two tail p values. […]

The values that follow come from patent publication US20100189807A1, “Use of an ozone / oxygen mixture as a primary anticancer therapy via intraperitoneal insufflation” (priority 2009, published 2010).

In the case of `O=[O+][O-]` [ozone], the “grade of adverse effect (weight loss)” value in data set [1] is on record as “grade II”.
On to `O=O` [O2], for which the “number of rabbits with remission of the tumor” value with VX2 auricular carcinoma is listed as “two”. Besides, the RBC was 5.68 10^6/mm^3 in data set [2] (d 14, directly before the first insufflation) and 5.31 10^6/mm^3 in data set [2] (d 19, 24 h after the last insufflation).
